Test results as given in PubChem BioAssay (NCI).
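Grown in 96-well plates, cells were treated for 48 hours with each compound at five concentrations. Insufficient inhibition: endpoint recorded as highest concentration tested. GI50 marks 50% less growth. TGI: total growth inhibition.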

Tests used:
Assay in all cases: growth of human tumour cells (NCI), 48 h
A498 renal = system: A498 renal
KM12 colon = system: KM12 colon
SW-620 colon = system: SW-620 colon
UO-31 renal = system: UO-31 renal
786-0 renal = system: 786-0 renal
A549 NSCLC = system: A549 NSCLC
ACHN renal = system: ACHN renal
CAKI-1 renal = system: CAKI-1 renal
CCRF-CEM leukemia = system: CCRF-CEM leukemia
COLO 205 colon = system: COLO 205 colon
DU-145 prostate = system: DU-145 prostate
EKVX NSCLC = system: EKVX NSCLC
HCC-2998 colon = system: HCC-2998 colon
HCT-116 colon = system: HCT-116 colon
HCT-15 colon = system: HCT-15 colon
HL-60(TB) leukemia = system: HL-60(TB) leukemia
HOP-62 NSCLC = system: HOP-62 NSCLC
HOP-92 NSCLC = system: HOP-92 NSCLC
HS 578T breast = system: HS 578T breast
HT29 colon = system: HT29 colon
IGROV1 ovarian = system: IGROV1 ovarian
K-562 leukemia = system: K-562 leukemia
LOX IMVI melanoma = system: LOX IMVI melanoma
M14 melanoma = system: M14 melanoma
MALME-3M melanoma = system: MALME-3M melanoma
MCF7 breast = system: MCF7 breast
MDA-MB-231 breast = system: MDA-MB-231 breast
MDA-MB-435 = system: MDA-MB-435
MOLT-4 leukemia = system: MOLT-4 leukemia
NCI-H226 lung = system: NCI-H226 lung
NCI-H23 lung = system: NCI-H23 lung
NCI-H460 lung = system: NCI-H460 lung
NCI-H522 lung = system: NCI-H522 lung
NCI/ADR-RES ovarian = system: NCI/ADR-RES ovarian
OVCAR-3 ovarian = system: OVCAR-3 ovarian
OVCAR-4 ovarian = system: OVCAR-4 ovarian
OVCAR-5 ovarian = system: OVCAR-5 ovarian
OVCAR-8 ovarian = system: OVCAR-8 ovarian
PC-3 prostate = system: PC-3 prostate
RPMI-8226 leukemia = system: RPMI-8226 leukemia
RXF 393 renal = system: RXF 393 renal
SF-268 CNS = system: SF-268 CNS
SF-295 CNS = system: SF-295 CNS
SF-539 CNS = system: SF-539 CNS
SK-MEL-2 melanoma = system: SK-MEL-2 melanoma
SK-MEL-28 melanoma = system: SK-MEL-28 melanoma
SK-MEL-5 melanoma = system: SK-MEL-5 melanoma
SK-OV-3 ovarian = system: SK-OV-3 ovarian
SN12C renal = system: SN12C renal
SNB-19 CNS = system: SNB-19 CNS
SNB-75 CNS = system: SNB-75 CNS
SR leukemia = system: SR leukemia
T-47D breast = system: T-47D breast
TK-10 renal = system: TK-10 renal
U251 CNS = system: U251 CNS
UACC-257 melanoma = system: UACC-257 melanoma
UACC-62 melanoma = system: UACC-62 melanoma

Work on `C#CC[C@@H]1C[C@]2(C)[C@H]3CC[C@@H]4[C@H]5C(C(=C)C)CC[C@]5(C(=O)NCCCCCCCCN)CC[C@@]4(C)[C@]3(C)CC[C@H]2C(C)(C)[C@H]1OC(C)=O` (some centres not stated) yielded a GI50 (A498 renal) of 2.25 µM, a TGI (A498 renal) of 5.35 µM and a GI50 (KM12 colon) of 1730 nM. For the same compound, the TGI (KM12 colon) was 3.22 µM, the GI50 (SW-620 colon) was 1710 nM and the TGI (SW-620 colon) was 3.31 µM. It also gave a GI50 (UO-31 renal) of 1460 nM and a TGI (UO-31 renal) of 2.84 µM.

With `Clc1cc(Cl)c(OCCCCCCN2CCNCC2)c(Cl)c1` the GI50 (786-0 renal) was 1730 nM, the TGI (786-0 renal) was 3.24 µM and the GI50 (A498 renal) was 9.35 µM. It also gave a TGI (A498 renal) of 22.6 µM, a GI50 (A549 NSCLC) of 10.6 µM and a TGI (A549 NSCLC) of 25.3 µM. For the same compound, the GI50 (ACHN renal) was 2440 nM, the TGI (ACHN renal) was 6.11 µM and the GI50 (CAKI-1 renal) was 2090 nM. The TGI (CAKI-1 renal) was 6.39 µM, the GI50 (CCRF-CEM leukemia) was 1890 nM and the TGI (CCRF-CEM leukemia) was 4.31 µM. For the same compound, the GI50 (COLO 205 colon) was 1820 nM, the TGI (COLO 205 colon) was 3.58 µM and the GI50 (DU-145 prostate) was 4.45 µM. The TGI (DU-145 prostate) was 15.9 µM, the GI50 (EKVX NSCLC) was 9.45 µM and the TGI (EKVX NSCLC) was 22.3 µM. For the same compound, the GI50 (HCC-2998 colon) was 2000 nM, the TGI (HCC-2998 colon) was 4.1 µM and the GI50 (HCT-116 colon) was 1670 nM. It also gave a TGI (HCT-116 colon) of 3.19 µM, a GI50 (HCT-15 colon) of 1820 nM and a TGI (HCT-15 colon) of 4.09 µM. The GI50 (HL-60(TB) leukemia) was 1860 nM, the TGI (HL-60(TB) leukemia) was 3.82 µM and the GI50 (HOP-62 NSCLC) was 10.6 µM. It also gave a TGI (HOP-62 NSCLC) of 26 µM, a GI50 (HOP-92 NSCLC) of 2320 nM and a TGI (HOP-92 NSCLC) of 7.64 µM. For the same compound, the GI50 (HS 578T breast) was 3.35 µM, the TGI (HS 578T breast) was 15.2 µM and the GI50 (HT29 colon) was 1960 nM. The TGI (HT29 colon) was 4.3 µM, the GI50 (IGROV1 ovarian) was 3.07 µM and the TGI (IGROV1 ovarian) was 8.43 µM. It also gave a GI50 (K-562 leukemia) of 1920 nM, a TGI (K-562 leukemia) of 4.24 µM and a GI50 (KM12 colon) of 1800 nM. It also gave a TGI (KM12 colon) of 3.6 µM, a GI50 (LOX IMVI melanoma) of 1750 nM and a TGI (LOX IMVI melanoma) of 3.26 µM. It also gave a GI50 (M14 melanoma) of 1840 nM, a TGI (M14 melanoma) of 3.65 µM and a GI50 (MALME-3M melanoma) of 2190 nM. For the same compound, the TGI (MALME-3M melanoma) was 5.06 µM, the GI50 (MCF7 breast) was 1890 nM and the TGI (MCF7 breast) was 4.2 µM. The GI50 (MDA-MB-231 breast) was 2170 nM, the TGI (MDA-MB-231 breast) was 4.53 µM and the GI50 (MDA-MB-435) was 2020 nM. The TGI (MDA-MB-435) was 4.23 µM, the GI50 (MOLT-4 leukemia) was 2040 nM and the TGI (MOLT-4 leukemia) was 4.88 µM. The GI50 (NCI-H226 lung) was 12.3 µM, the TGI (NCI-H226 lung) was 30.8 µM and the GI50 (NCI-H23 lung) was 7.31 µM. The TGI (NCI-H23 lung) was 21.8 µM, the GI50 (NCI-H460 lung) was 2030 nM and the TGI (NCI-H460 lung) was 4.15 µM. For the same compound, the GI50 (NCI-H522 lung) was 11.1 µM, the TGI (NCI-H522 lung) was 25.4 µM and the GI50 (NCI/ADR-RES ovarian) was 8.86 µM. It also gave a TGI (NCI/ADR-RES ovarian) of 26.1 µM, a GI50 (OVCAR-3 ovarian) of 2760 nM and a TGI (OVCAR-3 ovarian) of 9.05 µM. It also gave a GI50 (OVCAR-4 ovarian) of 3.48 µM, a TGI (OVCAR-4 ovarian) of 15.1 µM and a GI50 (OVCAR-5 ovarian) of 2820 nM. For the same compound, the TGI (OVCAR-5 ovarian) was 8.42 µM, the GI50 (OVCAR-8 ovarian) was 3.36 µM and the TGI (OVCAR-8 ovarian) was 12.4 µM. The GI50 (PC-3 prostate) was 1800 nM, the TGI (PC-3 prostate) was 4.03 µM and the GI50 (RPMI-8226 leukemia) was 2110 nM. It also gave a TGI (RPMI-8226 leukemia) of 4.62 µM, a GI50 (RXF 393 renal) of 1700 nM and a TGI (RXF 393 renal) of 5.07 µM. It also gave a GI50 (SF-268 CNS) of 5.85 µM, a TGI (SF-268 CNS) of 21.1 µM and a GI50 (SF-295 CNS) of 1810 nM. It also gave a TGI (SF-295 CNS) of 3.91 µM, a GI50 (SF-539 CNS) of 2270 nM and a TGI (SF-539 CNS) of 5.71 µM. For the same compound, the GI50 (SK-MEL-2 melanoma) was 5.52 µM, the TGI (SK-MEL-2 melanoma) was 18.1 µM and the GI50 (SK-MEL-28 melanoma) was 2330 nM. It also gave a TGI (SK-MEL-28 melanoma) of 5.68 µM, a GI50 (SK-MEL-5 melanoma) of 1660 nM and a TGI (SK-MEL-5 melanoma) of 3.06 µM. The GI50 (SK-OV-3 ovarian) was 12.9 µM, the TGI (SK-OV-3 ovarian) was 28.6 µM and the GI50 (SN12C renal) was 6.42 µM. The TGI (SN12C renal) was 23.6 µM, the GI50 (SNB-19 CNS) was 3.87 µM and the TGI (SNB-19 CNS) was 16.3 µM. For the same compound, the GI50 (SNB-75 CNS) was 2640 nM, the TGI (SNB-75 CNS) was 11.7 µM and the GI50 (SR leukemia) was 2160 nM. The TGI (SR leukemia) was 5.64 µM, the GI50 (SW-620 colon) was 1910 nM and the TGI (SW-620 colon) was 3.75 µM. It also gave a GI50 (T-47D breast) of 2010 nM, a TGI (T-47D breast) of 5.06 µM and a GI50 (TK-10 renal) of 11.8 µM. It also gave a TGI (TK-10 renal) of 24.5 µM, a GI50 (U251 CNS) of 2300 nM and a TGI (U251 CNS) of 6.09 µM. The GI50 (UACC-257 melanoma) was 2770 nM, the TGI (UACC-257 melanoma) was 7.4 µM and the GI50 (UACC-62 melanoma) was 2090 nM. For the same compound, the TGI (UACC-62 melanoma) was 4.27 µM, the GI50 (UO-31 renal) was 2000 nM and the TGI (UO-31 renal) was 5.44 µM.
